Structures are written as SMILES. Active and inactive are the calls of the source. No rule for the calls is given here. A value given as a limit tells only on which side of the number the result lay.

The assay deals with Microphthalmia-associated transcription factor (Homo sapiens) (UniProt O75030). Kind of assay: compounds blocking human MITF signal – biochemical, AlphaScreen, dose response (AID 1259371). Conditions: AlphaScreen biochemical MITF assay, signal inhibition.
Microphthalmia-associated transcription factor (Homo sapiens), sequence (O75030 whole entry, looked up): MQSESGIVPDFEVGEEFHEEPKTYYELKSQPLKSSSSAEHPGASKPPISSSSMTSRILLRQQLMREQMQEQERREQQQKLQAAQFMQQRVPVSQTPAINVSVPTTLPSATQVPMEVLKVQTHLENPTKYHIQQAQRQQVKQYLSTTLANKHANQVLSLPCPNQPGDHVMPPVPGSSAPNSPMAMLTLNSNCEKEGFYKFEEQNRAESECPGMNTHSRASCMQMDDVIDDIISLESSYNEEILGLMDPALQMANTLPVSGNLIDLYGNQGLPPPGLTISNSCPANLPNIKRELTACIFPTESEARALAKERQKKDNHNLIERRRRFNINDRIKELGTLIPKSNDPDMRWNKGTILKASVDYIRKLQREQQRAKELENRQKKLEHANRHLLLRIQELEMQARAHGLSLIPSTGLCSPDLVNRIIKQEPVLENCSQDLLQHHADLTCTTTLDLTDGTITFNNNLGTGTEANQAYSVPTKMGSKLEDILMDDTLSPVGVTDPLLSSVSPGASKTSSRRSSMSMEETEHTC
On to `Cc1n[nH]c(=O)nc1NNc1ccc(C(=O)O)cc1`, for which the IC50 entry is “inactive”.

For the compound `O=C1N[C@@H](CSCc2ccccc2)C(=O)N2CCN(C(=O)NC3CCCCC3)C[C@H]12`, the IC50 entry is “inactive”. Consider `c1cncc(CNc2nc(Nc3ccc(N4CCOCC4)cc3)c3ncn(C4CCCCC4)c3n2)c1`, for which the IC50 is > 4840 nM (inactive). Consider `O=C1N[C@@H](Cc2ccc(O)cc2)C(=O)N2CCN(C(=O)NCc3ccccc3)C[C@H]12`, for which the IC50 was > 2160 nM (inactive).

On to `CC(C)[C@@H]1NC(=O)[C@H]2CN(C(=O)NCc3ccccc3)CCN2C1=O`, for which the IC50 was 819 nM. On to `N#CC1=c2/c(=C/c3ccco3)c(N)c(C#N)n2C(=O)C(c2ccco2)S1` (stereo unspecified), for which the IC50 is 28.1 nM.

Regarding `CN1CCN(CCNC(=O)c2cccc(CN(C(=O)c3nc4ccc(-c5cn[nH]c5)cc4s3)C3CC3)c2)CC1`, the concentration for half-maximal inhibition (IC50) was 645 nM. Consider `COc1cc(N2CCOCC2)ccc1Nc1cc(Nc2ccccc2-n2cccn2)c(C(F)(F)F)cn1`, for which the IC50 result was “inactive”. Turning to `O=C(c1ccc(=O)oc1)N1CCc2ccccc21`, the IC50 result is “inactive”. Take `Cn1nnc(-c2ccc(Nc3nccc(-c4ccc5nc(C6CC6)[nH]c(=O)c5c4)n3)cc2)n1`: the IC50 entry is “inactive”. In the case of `Cc1cccc(C(=O)Nc2c3c(nn2-c2ccc(F)cc2)CSC3)c1`, the IC50 was > 5530 nM (inactive). Next, `Cc1ccc(/C(C#N)=C\c2ccco2)cc1`: “inactive”; `Cc1cccc(CN2CCN(S(=O)(=O)c3ccccc3[N+](=O)[O-])CC2)c1`: > 5080 nM (inactive).

As to `N#C/C(=C/c1ccco1)c1cccc(F)c1`, the IC50 result was “inactive”. Consider `C[C@@H]1NC(=O)[C@H]2CN(C(=O)NC3CCCCC3)CCN2C1=O`, for which the IC50 result is “inactive”. Next, `C=C1C(C(=O)NCc2ccco2)C1C(=O)NCc1ccco1` (stereo unspecified): 573 nM; `O=C(COC(=O)c1cc(-c2ccco2)nc2ccccc12)NC1CC1`: “inactive”; `CN(C)/C=C/C=C/C=C/C(=O)c1ccc(C(=O)/C=C/C=C/C=C/N(C)C)cc1`: 96.7 nM. As to `N/C(=N\[N+](=O)[O-])N/N=C\c1ccc(-c2ccc(O)c(C(=O)O)c2)o1`, the IC50 was 129 nM. Take `Cc1ccc(CCC(=O)Nc2ccc(-c3cn4c5c(nnc4n3)CCCC5)cc2)o1`: the IC50 is 306 nM. Next, `Cc1sc2nc(C)n3c(=O)n(CC(=O)NCc4ccco4)nc3c2c1C`: “inactive”.

With `O=C(NCc1ccccc1)N1CCN2C(=O)[C@H]3CCCN3C(=O)[C@H]2C1`, the IC50 result is “inactive”. Next, `C=CCNC(=O)COC(=O)c1cc(-c2ccco2)nc2ccccc12`: > 2310 nM (inactive); `C=CCNCCOCCOc1ccc(OCC)cc1`: > 6480 nM (inactive); `CCCCn1c(=O)[nH]c(=O)c2c1nc(-c1ccc([N+](=O)[O-])o1)n2C`: 66.6 nM. Next, `CCOC(=O)N1CCC(NC(=O)CCc2nc(C3=CCN(C)CC3)no2)CC1`: “inactive”; `NC(=O)c1cccc(-c2cccs2)c1`: “inactive”. Next, `CC(C)N(C(=O)COC(=O)c1cc(-c2ccco2)nc2ccccc12)C(C)C`: “inactive”.

Take `COc1cccc(CN2CCN(C(=O)c3ccc(F)cc3)CC2)c1`: the IC50 result is “inactive”. Next, `Cc1ccc(C)n1C(Cc1c[nH]c2ccccc12)C(=O)O` (stereo unspecified): 680 nM. Take `O=C(O)c1coc(CNC(=O)c2cocc2C(=O)O)c1`: the IC50 result was “inactive”.

On to `C[C@@H](OCc1ccccc1)[C@@H]1NC(=O)[C@H]2CN(C(=O)Nc3cccc(F)c3)CCN2C1=O`, for which the IC50 result is “inactive”. Take `O=C(O)c1ccc(CNC(=O)c2cocc2C(=O)O)o1`: the IC50 is > 7320 nM (inactive). Next, `COc1ccc2c(c1)CC(C(=O)Nc1ccc(-c3cn[nH]c3)cc1OCc1ccccc1)CO2` (stereo unspecified): “inactive”; `COC(=O)CCc1cc2c(C)cc(=O)oc2cc1OCc1ccc(C)cc1`: > 6480 nM (inactive); `O=C(NCCc1ccc(O)cc1)c1cccc(-c2cccs2)c1`: > 6260 nM (inactive). On to `O=C(CCCCC1SCC2NC(=O)NC21)NC1(c2ccc3c(c2)OCO3)CCCC1` (stereo unspecified), for which the IC50 result was “inactive”. Next, `O=C(N/N=C/C=C/c1ccco1)c1ccncc1`: 24.5 nM; `O=C(NCc1cccnc1)c1ccnc(-c2cccs2)c1`: “inactive”. Next, `CCC(C)c1ccccc1OCCNCCN(C)C` (stereo unspecified): > 6480 nM (inactive); `CN(Cc1ccco1)S(=O)(=O)c1ccc2[nH]cc(C(=O)O)c(=O)c2c1`: “inactive”; `O=C(OCCCC(=O)N1CCOCC1)c1cc(-c2ccco2)nc2ccccc12`: “inactive”. Regarding `CCOC(=O)N1CCN(C(=S)Nc2ccc(OCC)cc2)CC1`, the IC50 entry was “inactive”. Next, `NC(=O)COC(=O)c1cc2c(s1)CCC2`: “inactive”; `NC(=O)c1ccc2nc(-c3cccs3)sc2c1`: > 6180 nM (inactive). Next, `NC(=O)NC(=O)COC(=O)c1c2c(nc3ccccc13)/C(=C\c1ccco1)CCC2`: 349 nM; `Cc1ccc(-c2ncn(-c3ccc(Nc4cc(-n5cnc(Nc6ccccc6)n5)c(F)cn4)cc3)n2)cn1`: “inactive”. Next, `NC(=O)c1cncc(-c2cccs2)c1`: 321 nM.

Take `O=C(O)c1ccc(-n2cccc2)cc1Cl`: the 50% inhibitory concentration (IC50) was 626 nM.

Turning to `CC(=O)Nc1ccc(N2C(=O)c3ccccc3C2(O)Cc2ccccc2)cc1` (stereo unspecified), the IC50 was > 6480 nM (inactive). For `O=C(CCc1ccco1)Nc1ccc(-c2cn3c4c(nnc3n2)CCCC4)cc1`, the IC50 was 32 nM.

As for `O=C1OC(c2cccc([N+](=O)[O-])c2)=N/C1=C\c1ccc(OCc2ccccc2)cc1`, the IC50 is > 4620 nM (inactive). Take `CCOC(=O)C1C2NC(=S)N(c3ccccc3)C1(C)Oc1cc(OC)ccc12` (stereo unspecified): the IC50 is > 6400 nM (inactive).

Regarding `O=C(NCC(O)C(=O)N1CCOCC1)c1cccc(Nc2ccc3[nH]ncc3c2)n1` (stereo unspecified), the IC50 entry was “inactive”. With `CCCCNCCOc1ccccc1OCC`, the IC50 is > 6480 nM (inactive). As for `CC(C)NC(=O)/C(C#N)=C/c1ccc(-c2ccc([N+](=O)[O-])cc2Br)o1`, the IC50 was 314 nM. Take `O=c1c(O)c(-c2ccc(O)cc2O)oc2cc(O)cc(O)c12`: the IC50 entry was “inactive”. Next, `O=C(O)c1cccc(N2C(=O)CC(Nc3ccc(N4CCOCC4)cc3)C2=O)c1` (stereo unspecified): 242 nM. Next, `N[C@@H](C(=O)N[C@@H]1C(=O)N2C(C(=O)O)=C(CSC3CNNN3)CS[C@H]12)c1ccc(O)cc1` (stereo partly specified) (tested in a mixture with another compound): 324 nM; `CCS(=O)(=O)NCC(c1cccs1)S(=O)(=O)c1ccc(C)cc1` (stereo unspecified): 804 nM; `COC(=O)CSc1nnc(-c2ccco2)n1Cc1ccco1`: 99.3 nM. Next, `c1ccc2c(c1)ncn2CC1CCN(Cc2cn3ccccc3n2)CC1`: “inactive”; `CC(C)[C@@H]1NC(=O)[C@H]2CN(C(=O)NC3CCCCC3)CCN2C1=O`: > 2160 nM (inactive); `O=C1N[C@@H](CSCc2ccccc2)C(=O)N2CCN(C(=O)NCc3ccccc3)C[C@H]12`: 394 nM. For the compound `CC1=NN(c2ccc(C(=O)O)c(N)c2)C(=O)C1`, the IC50 result is “inactive”. Next, `COc1ccc(C[C@@H]2NC(=O)[C@H]3CN(C(=O)NCc4ccccc4)CCN3C2=O)cc1`: “inactive”; `CC(Oc1ccc(O)cc1)(P(=O)(O)O)P(=O)(O)O`: 85.5 nM; `Cc1noc(C2CN(C(=O)c3ccc(-n4cccc4)cc3)C2)n1`: “inactive”.

For the compound `Cc1ccc(O)c(NC(=S)NC(=O)/C=C/c2ccco2)c1`, the IC50 is > 6480 nM (inactive). Turning to `C/C(=N\Nc1ccc(S(=O)(=O)O)cc1)c1ccc([N+](=O)[O-])o1`, the IC50 is > 2160 nM (inactive).

Take `O=C(c1ccc([N+](=O)[O-])cc1)N1CCN(Cc2cccc3ccccc23)CC1`: the IC50 is > 5480 nM (inactive). As to `O=C(O)c1cc(-c2ccco2)nc2ccccc12`, the IC50 result is “inactive”.

Consider `CN(C)[C@@H]1C(=O)C(C(=O)NCN2CCCC2)=C(O)[C@@]2(O)C(=O)C3=C(O)c4c(O)cccc4[C@@](C)(O)[C@H]3C[C@@H]12`, for which the 50% inhibitory concentration (IC50) was 425 nM. Next, `CC(=O)CC1=C(C(=O)O)N2C(=O)C(N)C2SC1` (stereo unspecified): > 6480 nM (inactive).

With `COc1cc(-c2ccnc(N)n2)ccc1NC(=O)[C@H]1COc2ccccc2O1`, the IC50 entry is “inactive”. Next, `COc1ccc(C)cc1NS(=O)(=O)c1ccc2c(c1)CCC(=O)N2`: “inactive”; `COc1ccc(S(=O)(=O)N2CCN(Cc3ccccc3[N+](=O)[O-])CC2)cc1`: > 4330 nM (inactive); `O=C(NCc1cccnc1)c1cccc(-c2cccs2)c1`: > 6640 nM (inactive). Turning to `COCCCNC(=O)/C(C#N)=C/c1ccc(-c2ccc(C(=O)O)c(Cl)c2)o1`, the IC50 result is “inactive”. Next, `O=C(O)c1ccc(O)c(C=Nc2ccc(N=Cc3cc(C(=O)O)ccc3O)cc2)c1`: “inactive”; `O=C(OC1(C(F)(F)F)C(=O)Nc2cc3c(cc21)OCO3)c1ccc(Cl)nc1` (stereo unspecified): 179 nM.

Consider `O=c1[nH]c(/C=C/c2ccco2)nc(O)c1[N+](=O)[O-]`, for which the IC50 was 284 nM.

For the compound `CN(C)C(=O)N1CCN(S(=O)(=O)c2cccc([N+](=O)[O-])c2)CC1`, the IC50 was > 6480 nM (inactive). Regarding `COC(C)(C)CNC(=O)C1CCN(C2CCN(Cc3cccc(C)n3)CC2)CC1`, the IC50 result is “inactive”. Next, `O=C(CN1C(=O)NC2(CCCCCC2)C1=O)NC(=O)NCc1ccco1`: “inactive”; `N#CC(C#N)=Cc1cccn1-c1ccc(C(=O)O)cc1`: “inactive”; `Cc1cc(O)c2c(c1)Cc1cccc(O)c1C2=O`: 474 nM. For `CC[C@H](C)[C@@H]1NC(=O)[C@H]2CN(C(=O)NC3CCCCC3)CCN2C1=O`, the IC50 was > 2160 nM (inactive). Next, `O=C(NCCO)c1ccc2nc(-c3ccco3)c(-c3ccco3)nc2c1`: 396 nM; `CCCOc1ccc(N)cc1N`: “inactive”.

Consider `O=c1[nH]cnc2nc(-c3ccco3)c(-c3ccco3)nc12`, for which the IC50 is 79.7 nM.

These data come from PubChem BioAssay AID1259371 (The Scripps Research Institute Molecular Screening Center, 2018).
